{"source": "BindingDB's records for doi:10.1021/jm00126a013", "about": "(University of California, 1989)", "data": [{"molecular_target": "Vesicular acetylcholine transporter (Torpedo californica)", "assay": "Inhibition of active transport of [3H]acetylcholine using purified Torpedo californica synaptic vesicles", "units": {"IC50": "nM"}, "values": [{"molecule": "O=C(CCCCC1SCC2NC(=O)NC21)NCC(=O)NCC(=O)Nc1cccc2c1CC(N1CCC(c3ccccc3)CC1)C(O)C2", "note": "(configuration not stated)", "IC50": 200}, {"molecule": "O[C@@H]1[C@H](O)CCC[C@H]1N1CCC(c2ccccc2)CC1", "IC50": 100}, {"molecule": "OC1CCCCC1N1CCCCC1", "note": "(configuration not stated)", "IC50": "> 40000"}, {"molecule": "CCC(O)C[N+]1(C)CCC(c2ccccc2)CC1", "note": "(configuration not stated)", "IC50": 2000}, {"molecule": "CC1(c2ccccc2)CCCN(C2CCCCC2O)C1", "note": "(configuration not stated)", "IC50": 4000}, {"molecule": "OC1CCCCC1N1CC=C(c2ccc(Cl)cc2)CC1", "note": "(configuration not stated)", "IC50": 200}, {"molecule": "OC1CCCCC1N1C=NC(c2ccccc2)C1", "note": "(configuration not stated)", "IC50": 40000}, {"molecule": "Nc1cccc2c1CC(N1CCC(c3ccccc3)CC1)C(O)C2", "note": "(configuration not stated)", "IC50": 100}, {"molecule": "O=C(CCCCC1SCC2NC(=O)NC21)Nc1cccc2c1CC(N1CCC(c3ccccc3)CC1)C(O)C2", "note": "(configuration not stated)", "IC50": 100}, {"molecule": "CC(=O)OCC[N+]1(C)CCC(c2ccccc2)CC1", "note": "(configuration not stated)", "IC50": 4000}, {"molecule": "OC1CCCCC1N1CCN(c2ccccc2)CC1", "note": "(configuration not stated)", "IC50": 300}, {"molecule": "CN(CCCc1ccccc1)C1CCCCC1O", "note": "(configuration not stated)", "IC50": 2000}, {"molecule": "C[N+]1(CCO)CCC(c2ccccc2)CC1", "note": "(configuration not stated)", "IC50": 8000}, {"molecule": "Nc1ccc(C2CCN(C3CCCCC3O)CC2)cc1", "note": "(configuration not stated)", "IC50": 500}, {"molecule": "CC(=O)OC1CCCCC1N1CCC(c2ccccc2)CC1", "note": "(configuration not stated)", "IC50": 2000}, {"molecule": "CN(CCc1ccccc1)C1CCCCC1O", "note": "(configuration not stated)", "IC50": 20000}, {"molecule": "CNc1ccc(C2CCN(C3CCCCC3O)CC2)cc1", "note": "(configuration not stated)", "IC50": 400}, {"molecule": "O=C(O)CCC(=O)Nc1cccc2c1CC(N1CCC(c3ccccc3)CC1)C(O)C2", "note": "(configuration not stated)", "IC50": 50}, {"molecule": "OC1CCCCC1N1CC=C(c2ccccc2)CC1", "note": "(configuration not stated)", "IC50": 200}, {"molecule": "OC1CN(C2CCCCC2O)CCC1c1ccccc1", "note": "(configuration not stated)", "IC50": 200}, {"molecule": "COc1ccc2c3c1OC1C(O)C=CC4C(C2)N(C2CCCCC2O)CCC341", "note": "(configuration not stated)", "IC50": 80000}, {"molecule": "OC1CCCCC1NC1CCc2ccccc21", "note": "(configuration not stated)", "IC50": 3000}, {"molecule": "CC(C)(C)[C@H]1CC[C@@H](N2CCC(c3ccccc3)CC2)[C@H](O)C1", "IC50": 90}, {"molecule": "O=C(O)CCC(=O)Nc1cccc2c1CC(O)C(N1CCC(c3ccccc3)CC1)C2", "note": "(configuration not stated)", "IC50": 500}, {"molecule": "CC(=O)Nc1ccc(I)c2c1CC(N1CCC(c3ccccc3)CC1)C(O)C2", "note": "(configuration not stated)", "IC50": 300}, {"molecule": "O=c1[nH]c2ccccc2n1C1CCN(C2CCCCC2O)CC1", "note": "(configuration not stated)", "IC50": 1000}, {"molecule": "O=C(Nc1cccc2c1CC(O)C(N1CCC(c3ccccc3)CC1)C2)C(F)(F)F", "note": "(configuration not stated)", "IC50": 2000}, {"molecule": "CN(C)c1ccc(C2CCN(C3CCCCC3O)CC2)cc1", "note": "(configuration not stated)", "IC50": 300}, {"molecule": "CCC(CN1CCC(c2ccccc2)CC1)OC(C)=O", "note": "(configuration not stated)", "IC50": 800}, {"molecule": "CCC(O)CN1CCC(c2ccccc2)CC1", "note": "(configuration not stated)", "IC50": 300}, {"molecule": "CC1(O)CCCC[C@H]1N1CCC(c2ccccc2)CC1", "note": "(some centres not stated)", "IC50": 6000}, {"molecule": "OC1CCCCC1N1CCC(c2ccc(Cl)cc2)CC1", "note": "(configuration not stated)", "IC50": 100}, {"molecule": "CC1CN(C2CCCCC2O)CCN1c1ccccc1", "note": "(configuration not stated)", "IC50": 300}, {"molecule": "OC1CCCCC1N1CCN(Cc2ccc3c(c2)OCO3)CC1", "note": "(configuration not stated)", "IC50": 300}, {"molecule": "OC1CCCCC1N1CCC(CCC2CCN(C3CCCCC3O)CC2)CC1", "note": "(configuration not stated)", "IC50": "> 1000"}, {"molecule": "SC1CCCCC1N1CCC(c2ccccc2)CC1", "note": "(configuration not stated)", "IC50": 4000}, {"molecule": "Cc1ccc(C)c(N2CCN(C3CCCCC3O)CC2)c1", "note": "(configuration not stated)", "IC50": 100}, {"molecule": "CC(=O)Nc1ccc(C2CCN(C3CCCCC3O)CC2)cc1", "note": "(configuration not stated)", "IC50": 20000}, {"molecule": "O=C1CCC2(O)C3Cc4ccc(O)c5c4C2(CCN3C2CCCCC2O)C1O5", "note": "(configuration not stated)", "IC50": "> 100000"}, {"molecule": "CC(=O)OCCN1CCC(c2ccccc2)CC1", "IC50": 9000}, {"molecule": "CN(Cc1ccccc1)C1CCCCC1O", "note": "(configuration not stated)", "IC50": 10000}, {"molecule": "OC1CCCCC1N1CCC(Cc2ccccc2)CC1", "note": "(configuration not stated)", "IC50": 300}, {"molecule": "CC(=O)OC1CCCCC1[N+]1(C)CCC(c2ccccc2)CC1", "note": "(configuration not stated)", "IC50": 5000}, {"molecule": "O=[N+]([O-])c1ccc(C2CCN(C3CCCCC3O)CC2)c([N+](=O)[O-])c1", "note": "(configuration not stated)", "IC50": 300}, {"molecule": "OC1CCCCC1N1CCC(CCCc2ccccc2)CC1", "note": "(configuration not stated)", "IC50": 70}, {"molecule": "CC(=O)Nc1cccc2c1CC(O)C(N1CCC(c3ccccc3)CC1)C2", "note": "(configuration not stated)", "IC50": "> 2000"}, {"molecule": "O[C@H]1[C@H](N2CCC(c3ccccc3)CC2)CCC[C@H]1c1ccccc1", "IC50": 600}, {"molecule": "OC[C@H]1CC[C@@H](O)[C@H](N2CCC(c3ccccc3)CC2)C1", "IC50": 800}, {"molecule": "OC1CCCCC1N1CCC(CCCC2CCN(C3CCCCC3O)CC2)CC1", "note": "(configuration not stated)", "IC50": 200}, {"molecule": "OC1CCCCC1N1CC2CCC(CC2)C1", "note": "(configuration not stated)", "IC50": 20000}, {"molecule": "O=[N+]([O-])c1ccc(C2CCN(C3CCCCC3O)CC2)cc1", "note": "(configuration not stated)", "IC50": 100}, {"molecule": "OC1C2CCC1C(N1CCC(c3ccccc3)CC1)C2", "note": "(configuration not stated)", "IC50": 10000}, {"molecule": "Nc1cccc2c1CC(O)C(N1CCC(c3ccccc3)CC1)C2", "note": "(configuration not stated)", "IC50": 300}, {"molecule": "OC1CCCC1N1CCC(c2ccccc2)CC1", "note": "(configuration not stated)", "IC50": 2000}, {"molecule": "O=C(c1ccccc1)N1CCN(C2CCCCC2O)CC1", "note": "(configuration not stated)", "IC50": 10000}, {"molecule": "O=C1CCCCC1N1CCC(c2ccccc2)CC1", "note": "(configuration not stated)", "IC50": 40000}, {"molecule": "C[N+]1(C2CCCCC2O)CCC(c2ccccc2)CC1", "note": "(configuration not stated)", "IC50": "> 1000"}, {"molecule": "OCCN1CCC(c2ccccc2)CC1", "IC50": 10000}, {"molecule": "CO[C@H]1CCC[C@@H](N2CCC(c3ccccc3)CC2)[C@@H]1O", "IC50": 2000}, {"molecule": "Cc1ccccc1N1CCN(C2CCCCC2O)CC1", "note": "(configuration not stated)", "IC50": 100}, {"molecule": "OC1CCCCC1N1CCC(C2CCN(C3CCCCC3O)CC2)CC1", "note": "(configuration not stated)", "IC50": 200}, {"molecule": "COc1ccc(N2CCN(C3CCCCC3O)CC2)cc1", "note": "(configuration not stated)", "IC50": 300}, {"molecule": "O[C@@H]1CCCC[C@H]1CN1CCC(c2ccccc2)CC1", "IC50": 2000}, {"molecule": "O[C@H]1CCCC[C@H]1CN1CCC(c2ccccc2)CC1", "IC50": 1000}, {"molecule": "O=C(CCC(=O)Nc1cccc2c1CC(N1CCC(c3ccccc3)CC1)C(O)C2)NNC(=O)CCC(=O)Nc1cccc2c1CC(N1CCC(c3ccccc3)CC1)C(O)C2", "note": "(configuration not stated) [N-[6-Hydroxy-7-(4-phenyl-piperidin-1-yl)-5,6,7,8-tetrahydro-naphthalen-1-yl]-4-(N'-{3-[6-hydroxy-7-(4-phenyl-piperidin-1-yl)-5,6,7,8-tetrahydro-naphthalen-1-ylcarbamoyl]-propionyl}-hydrazino)-4-oxo-butyramide]", "IC50": 1000}, {"molecule": "CC(C)(C)[C@H]1CC[C@@H](O)[C@H](N2CCC(c3ccccc3)CC2)C1", "note": "[trans-(4S)-4-tert-butyl-2-(4-phenylpiperidin-1-yl)cyclohexanol]", "IC50": 20}]}, {"molecular_target": "Vesicular acetylcholine transporter (Torpedo californica)", "assay": "Inhibition of active transport of [3H]acetylcholine using purified Torpedo californica synaptic vesicles", "remark": "another data set of the same source", "units": {"IC50": "nM"}, "values": [{"molecule": "COc1ccccc1N1CCN(C2CC3CCCCC3CC2O)CC1", "note": "(configuration not stated)", "IC50": 300}]}]}
